Experiments:
[1] = tested on: human T cells; experiment: T cell proliferation assay (3H-thymidine uptake); format: cell-based; details: 20 µg/ml; 6 days post-incubation (Figure 6)
Method: T cell proliferation assays were performed on cells obtained from human leukopacs (discarded white cells from anonymous platelet donors). Mononuclear cells were separated by ficoll-hypaque sedimentation to eliminate red cells and polymorphonuclear leukocytes. The mononuclear layer, which consisted of T cells, B cells, and mononuclear cells, was depleted of B cells and monocytes by passage over nylon wool column. A portion of these cells was saved prior to placement on nylon wool and were used as autologous feeder cells following irradiation with 6.4 kRads with a cesium source for 4.8 min. Nylon passed cells, which were greater than 98% CD3 positive (as determined by FACS analysis) were used as responder cells or further depleted with antibodies to CD4 (OKT4) or CD8 (OKT8) followed by negative selection with magnetic beads. Finberg, RW et al. J Immunol 149:2055 (1992); Haregewoin, A et al. Nature 340:309 (1989). […] Cells were washed extensively, harvested, and the amount of radioactive uptake counted by liquid scintillation. […] Data were expressed as the average of triplicate wells ± the standard error of cpm represented. […]
Following the T cell proliferation assay of Example 2, K-D peptides (20 µg/ml) of varying size were assessed for their ability to stimulate T cell activation 6 days post-incubation. […]

[2] = tested on: B. fragilis NCTC 9343; experiment: Rat model of intraabdominal sepsis, abscess formation after B. fragilis challenge; format: in vivo
Method: The rat model of intraabdominal sepsis used in this study has been described previously. […] Briefly, male Wistar or Lewis rats (Charles River Laboratories, Wilmington, MA) weighing between 180 and 200 g were housed separately and received chow (Ralston Purina, St. Louis, MO) and water ad libitum. Animals were anesthetized with a single intraperitoneal injection of 0.15 ml of Nembutal (50 mg/ml; Abbott Laboratories, North Chicago, IL), and their abdomens were shaved and swabbed with a tincture of iodine. An anterior midline incision (0.5-1.0 cm) was made through the abdominal wall and peritoneum, and a gelatin capsule containing 0.5 ml of inoculum was inserted into the pelvis. The inoculum contained either B. fragilis NCTC 9343 (10^8 cfu/animal), S. aureus PS 80 (10^7 cfu/animal), or purified test polysaccharide, mixed 1:1 with an adjuvant solution containing sterile rat cecal contents and 10% barium sulfate (w/v) as previously described. […] The incisions were closed with interrupted 3.0 silk sutures, and the animals were returned to the cages.
Six days later animals were necropsied in a blinded fashion and examined for the formation of one or more intraabdominal abscesses by an observer blinded to the experimental groups.
This example addresses whether zwitterionic (K-D)n peptides could protect animals against abscess formation in vivo, using the abdominal sepsis model in Example 1.
The effect of the peptide repeating unit size on protection was examined. Animals were treated according to the regimen described above with a 50 µg/dose of each repeating unit size (Table 2).

[3] = Table 1 Experiment A, 50 µg subcutaneous at -24, 0, +24 h, B. fragilis 1 x 10^8 cfu/rat, six days later

In the case of poly-L-lysine, the “T cell activation by K-D peptides of varying size” value [1] was “did not stimulate T cell proliferation”, the “protection against abscess formation compared with saline-treated animals” value ([2]; 50 µg/dose subcutaneous, B. fragilis challenge) was “did not protect against abscess formation” and the “Abscess formation (%)” value [2, 3] was 80%. For the same substance, the “No. animals with abscess/total” value [2, 3] was 8/10.

Reference: EP1459757A1, “Immunomodulating polymers” (THE BRIGHAM AND WOMEN'S HOSPITAL, INC., priority 1999, dated 2004)
